Data: publication PMC4081081 (2014)

Test system: T25 (DNA, single strand, C6-amino dT at 8 of strand 2) TGGCGACGGCAGCGAGGCTTTTTTTTTTTTTTTTTTTTTTTTT/GCCTCGCTGCCGTCGCCA
Assay: Cy3 fluorescence quenching
Conditions: 100 mM KCl; 10 mM Tris-HCl pH 7.5, room temperature, 50 nM DNA; negative control, nonspecific quenching taken as background

CCc1c(C)c2cc3nc(cc4nc(cc5c(CC)c(C)c(cc1[nH]2)n5C)C(C)=C4CCC(=O)O)C(CCC(=O)O)=C3C
binding: weak
